PMC7029132, “The pentose phosphate pathway of cellulolytic clostridia relies on 6-phosphofructokinase instead of transaldolase” (The Journal of Biological Chemistry, 2019)

Target: T1, rabbit aldolase (Oryctolagus cuniculus, UniProt P00883)
T1 construct: gene ALDOA; commercial native enzyme (Sigma A8811)
T1 sequence (P00883 2-364): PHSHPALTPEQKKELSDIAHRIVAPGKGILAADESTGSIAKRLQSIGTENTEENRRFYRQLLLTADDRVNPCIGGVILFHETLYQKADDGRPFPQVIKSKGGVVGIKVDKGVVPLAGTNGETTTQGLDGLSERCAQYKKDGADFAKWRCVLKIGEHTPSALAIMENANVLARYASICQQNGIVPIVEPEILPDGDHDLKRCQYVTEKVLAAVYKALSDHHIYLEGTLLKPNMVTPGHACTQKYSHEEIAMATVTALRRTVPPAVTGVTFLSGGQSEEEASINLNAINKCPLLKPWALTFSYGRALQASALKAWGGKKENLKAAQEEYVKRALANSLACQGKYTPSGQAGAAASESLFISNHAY
Assay: LC-MS time course of E4P and DHAP formation, SBP made in situ by PPi-PFK
Format: biochemical
Settings: 100 mM Tris-HCl pH 7 at 55 °C, 5 mM MgCl2, 5 mM PPi, 1 mM S7P, 4 units aldolase

## O=C(COP(=O)(O)O)[C@@H](O)[C@H](O)[C@H](O)[C@H](O)COP(=O)(O)O [SBP]
  LC-MS time course of E4P and DHAP formation, SBP made in situ by PPi-PFK: rabbit aldolase was able to convert the formed SBP to E4P and DHAP
